Experimental data from PMC8243515 (JHEP Reports, 2021).
Entries after “also recorded” stand apart in the source; their conditions may differ. Where two headings read alike, the source gives them in different places.

Key:
[1] = test system: HBV; assay: microbe, parasite or virus in culture; type: cell-based, hepatitis B virus genotype D; settings: for Emax: read-out: %Imax; for p2 cells still infected at high inhibitor concentrations: high concentrations of late-phase reference inhibitors; for %Imax, p2 infection: percent maximum inhibition
[2] = test system: HBV; assay: microbe, parasite or virus in culture; type: cell-based, hepatitis B virus genotype D; settings: for effect on p1 cell infection (phenotype): reference inhibitors, assay validation; for %Imax, p1 infection: percent maximum inhibition
[3] = test system: HBV; settings: read-out: Published EC50, cited from earlier work
[4] = test system: HBV and HDV; settings: cited from earlier work
[5] = target: T1, NTCP (Homo sapiens, UniProt Q14973); assay: Binding assay of Alexa633-labelled HBV preS1 peptide; settings: for effect on preS1 peptide binding to NTCP: cytochalasin D tested up to 50 μM
T1 sequence (Q14973 1-349): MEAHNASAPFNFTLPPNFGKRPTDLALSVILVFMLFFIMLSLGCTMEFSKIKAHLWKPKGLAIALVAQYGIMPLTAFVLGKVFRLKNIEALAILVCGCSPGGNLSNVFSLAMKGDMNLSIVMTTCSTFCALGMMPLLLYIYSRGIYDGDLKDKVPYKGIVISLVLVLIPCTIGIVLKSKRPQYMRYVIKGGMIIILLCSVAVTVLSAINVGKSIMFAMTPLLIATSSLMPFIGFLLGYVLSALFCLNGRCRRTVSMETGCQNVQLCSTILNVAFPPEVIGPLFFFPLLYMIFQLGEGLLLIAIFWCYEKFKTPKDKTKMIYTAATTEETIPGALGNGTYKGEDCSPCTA

[6] = test system: SARS-CoV-2; type: cell-based
[7] = test system: HIV-1; type: cell-based, HIV-1 strain LAI; settings: Fig. S3
[8] = test system: HBV; assay: Time-of-addition experiments, HBV infection; type: cell-based, hepatitis B virus; settings: pretreatment/cotreatment vs post-inoculation 1-7 dpi
[9] = target: T1, NTCP; settings: transiently NTCP-transfected U2OS cells; cited from earlier work
[10] = test system: HBV; assay: Stably HBV replicating HepAD38 cells, supernatant HBV DNA by quantitative PCR; type: cell-based, hepatitis B virus; settings: supernatant qPCR at 7 days post-treatment
[11] = test system: HCV; type: cell-based
[12] = test system: HBV preS1 peptide internalisation; assay: Live-cell imaging of Alexa633-labelled preS1 peptide internalisation; type: cell-based; settings: after transfer to 37°C, confocal live-cell imaging
[13] = test system: SARS-CoV-2; settings: virus-free, live-cell assay; cited from earlier work
[14] = test system: HepG2-NTCPsec+ cells; assay: Cell viability by automated nuclei counting; type: cell-based, human; settings: hit confirmation DRC, 10-point serial dilutions starting at 25 μM
[15] = read-out: EC50, p1 infection, p1 cells, DRC of reference inhibitors
[16] = Hepatitis B virus, read-out: EC50 (μM), early HBV life cycle inhibitors

CC(C)OC(=O)[C@H](C)N[P@](=O)(CO[C@H](C)Cn1cnc2c(N)ncnc21)Oc1ccccc1 [GS-7340]
EC50 ([1]; Hepatitis B virus): < 0.05 µM | Emax ([1]; Hepatitis B virus): 99.4%

O=C1Cc2ccccc2C(=O)N1O [HID, N-hydroxyisoquinolinedione]
EC50 [2, 15]: > 50 µM | effect on p1 cell infection (phenotype) [2]: did not affect the infection status of p1 cells | effect on p2 cell infection / infectivity of HBV progeny ([1]; after supernatant transfer): reduced number of infected p2 cells | p2 cells still infected at high inhibitor concentrations [1]: 2–5% | %Imax, p2 infection ([1]; p2 cells): 99% | EC50 ([3]; System HepDES19, ref PMID 24858512): 4.2 µM

COc1cc(C(=O)NS(=O)(=O)c2ccccc2C)ccc1Cc1cn(C)c2ccc(NC(=O)OC3CCCC3)cc12 [zafirlukast]
concentration significantly inhibiting HBV and HDV infection [4]: 6 µM

CCC(C)(C)C(=O)O[C@H]1C[C@@H](C)C=C2C=C[C@H](C)[C@H](CC[C@@H]3C[C@@H](O)CC(=O)O3)[C@H]21 [Simvastatin]
Emax ([1]; Hepatitis B virus): 99.9%

O=C(Nc1cccc2c(=O)cc(-c3nnn[nH]3)oc12)c1ccc(OCCCCc2ccccc2)cc1 [Pranlukast, pranlukast]
EC50 [2, 16]: 4.3 µM | Imax (%), early HBV life cycle inhibitors ([2]; p1 cells): 92% | EC50 [5]: 7.6 µM | effect on preS1 peptide binding to NTCP [5]: inhibited HBV preS1 binding | effect on preS1 peptide binding to NTCP ([5]; listed as pranlukast): blocked the binding | effect on SARS-CoV-2 infection ([6]; Fig. S3): only inhibited HIV-1; also recorded: but not pranlukast | effect on HIV-1 infection [7]: only inhibited HIV-1 | anti-HBV activity in time-of-addition experiments [8]: exhibited anti-HBV activity exclusively under the pretreatment/cotreatment conditions | effect on NTCP bile acid transporter function [9]: inhibits the bile acid transporter function

O=c1[nH]c(=O)n([C@H]2C[C@H](O)[C@@H](CO)O2)cc1F [Floxuridine]
Emax ([1]; Hepatitis B virus): 97.6%

Cc1cccc([C@H](C)c2cnc[nH]2)c1C [Dexmedetomidine, dexmedetomidine]
Imax (%), late HBV life cycle inhibitors [1]: 82% | effect on p2 cell infection / infectivity of HBV progeny [1]: interfered with the infectivity of HBV progeny; also recorded: mitigated the infectivity of secreted progeny HBV particles; also recorded: strongly suppresses the infectivity of secreted progeny HBV particles | EC50 ([1]; Hepatitis B virus, read-out: EC50 (μM), late HBV life cycle inhibitors): 6.2 µM | EC50 ([1]; read-out: EC50 (μM), late HBV life cycle inhibitors): 6.23 µM | effect on HBV replication / HBV DNA secretion in HepAD38 cells [10]: without reducing HBV replication or genome secretion; also recorded: did not inhibit HBV DNA replication | effect on HCV replication and secretion [11]: no inhibition was observed; also recorded: do not interfere in the production and spread | effect on SARS-CoV-2 infection [6]: no inhibition was observed; also recorded: do not interfere in the production and spread

CC(C)OC(=O)OCOP(=O)(CO[C@H](C)Cn1cnc2c(N)ncnc21)OCOC(=O)OC(C)C.O=C(O)/C=C/C(=O)O [TDF, tenofovir disoproxil fumarate]
EC50 [2, 15]: > 50 µM | effect on p1 cell infection (phenotype) [2]: did not affect the infection status of p1 cells | effect on p2 cell infection / infectivity of HBV progeny ([1]; after supernatant transfer): reduced number of infected p2 cells | p2 cells still infected at high inhibitor concentrations [1]: 2–5%

Nc1ccn([C@@H]2CS[C@H](CO)O2)c(=O)n1 [LMV, lamivudine]
EC50 ([2]; Hepatitis B virus, read-out: EC50, p1 infection): > 10 µM | EC50 ([1]; Hepatitis B virus, read-out: EC50 (μM), late HBV life cycle inhibitors, infectious HBV genotype D, p2 cells): 0.02 µM | p2 cells still infected at high inhibitor concentrations [1]: 2–5% | Imax (%), late HBV life cycle inhibitors ([1]; p2 cells): 98%

CCOC(=O)C1=C(CN2CCOCC2)NC(c2nccs2)=NC1c1ccc(F)cc1Br (stereo not drawn) [GLS4]
HBcAg phenotype under CpAM treatment ([2]; class II core protein allosteric modifiers, Fig. S4): aggregated HBcAg phenotype

O=C(CN(c1cc(C(F)(F)F)ccc1Cl)S(=O)(=O)c1ccccc1)NCc1ccncc1 [CCC-0975]
%Imax, p1 infection ([2]; p1 cells): 60% | EC50 [2, 15]: ~5 µM | effect on p1 cell infection (phenotype) [2]: inhibited HBV infection in p1 and p2 cells | effect on p2 cell infection / infectivity of HBV progeny ([1]; after supernatant transfer): inhibited HBV infection in p1 and p2 cells | EC50 ([1]; read-out: EC50, p2 infection (after supernatant transfer), p2 cells): ~8 µM | EC50 ([3]; System HepDE19, ref PMID 22644022): 10 µM

C=C1[C@@H](C)[C@H]2[C@H](Cc3ccccc3)NC(=O)[C@]23[C@H](OC(C)=O)/C=C/[C@@](C)(O)C(=O)[C@@H](C)C/C=C/[C@H]3[C@@H]1O [Cytochalasin D, cytochalasin D]
EC50 [2, 16]: 0.07 µM | Imax (%), early HBV life cycle inhibitors ([2]; p1 cells): 86% | effect on preS1 peptide binding to NTCP [5]: did not prevent the binding | effect on preS1 peptide binding to NTCP ([5]; listed as cytochalasin D): did not interfere with receptor–virus binding | effect on internalisation of HBV preS1 peptide [12]: prevented the internalisation of HBV; also recorded: partially reduced; also recorded: partial retention of the peptide at the plasma membrane | effect on SARS-CoV-2 infection ([6]; Fig. S3): minor activity in both virus systems; also recorded: inhibits SARS-CoV-2 infection | effect on HIV-1 infection [7]: minor activity in both virus systems | anti-HBV activity in time-of-addition experiments [8]: exhibited anti-HBV activity exclusively under the pretreatment/cotreatment conditions | effect on SARS-CoV-2 cell entry [13]: prevent SARS-CoV-2 cell entry

COC(=O)C1=C(C)NC(c2ncc(F)cc2F)=N[C@H]1c1ccc(F)cc1Cl [Bay41-4109]
%Imax, p1 infection ([2]; p1 cells): 99% | EC50 [2, 15]: 1.3 µM | %Imax, p2 infection ([1]; p2 cells): 99%

CC[C@]1(O)C[C@H]2CN(CCc3c([nH]c4ccccc34)[C@@](C(=O)OC)(c3cc4c(cc3OC)N(C=O)[C@H]3[C@@](O)(C(=O)OC)[C@H](OC(C)=O)[C@]5(CC)C=CCN6CC[C@]43[C@@H]65)C2)C1 [Vincristine]
Emax ([1]; Hepatitis B virus): 96.9%

CN1c2cc3c(cc2N=C(c2ccc(C(=O)O)cc2)c2ccccc21)C(C)(C)CCC3(C)C [LE 135]
%Imax ([2]; p1 inhibitor, hit confirmation DRC): 94.5% | EC50 ([2]; p1 inhibitor, hit confirmation DRC, 10-point serial dilutions starting at 25 μM): 11.7 µM | CC50 [14]: > 25 µM

Nc1ncn([C@H]2C[C@H](O)[C@@H](CO)O2)c(=O)n1 [Decitabine]
Emax ([1]; Hepatitis B virus): 91.9%

CC(C)(C)c1cc(C(=O)/C=C/c2ccc(C(=O)O)cc2)cc(C(C)(C)C)c1 [Ch 55]
%Imax ([1]; p2 inhibitor, hit confirmation DRC): 99.9% | EC50 ([1]; p2 inhibitor, hit confirmation DRC, 10-point serial dilutions starting at 25 μM): 3.21 µM | CC50 [14]: > 25 µM

CC[C@H](C)C(=O)O[C@H]1CCC=C2C=C[C@H](C)[C@H](CC[C@@H]3C[C@@H](O)CC(=O)O3)[C@H]21 [Mevastatin]
Emax ([1]; Hepatitis B virus): 101%

C#CCC(Cc1cnc2nc(N)nc(N)c2n1)c1ccc(C(=O)N[C@@H](CCC(=O)O)C(=O)O)cc1 (stereo partly drawn) [Pralatrexate]
Emax ([1]; Hepatitis B virus): 102%

Cc1nc2ccc(CN(C)c3ccc(C(=O)N[C@@H](CCC(=O)O)C(=O)O)s3)cc2c(=O)[nH]1 [Raltitrexed]
Emax ([1]; Hepatitis B virus): 93.7%

COC(=O)Nc1nc2ccc(C(=O)c3cccs3)cc2[nH]1 [Nocodazole]
Emax ([1]; Hepatitis B virus): 91.8%

Cc1c(C(=O)NN2CCCCC2)nn(-c2ccc(Cl)cc2Cl)c1-c1ccc(Cl)cc1 [Rimonabant]
Emax ([1]; Hepatitis B virus): 99.4%

CC[C@@H]([C@H](C)O)n1ncn(-c2ccc(N3CCN(c4ccc(OC[C@@H]5CO[C@@](Cn6cncn6)(c6ccc(F)cc6F)C5)cc4)CC3)cc2)c1=O [Posaconazole]
Emax ([1]; Hepatitis B virus): 96.4%

IFNα
antiviral effect on early HBV life cycle steps ([2]; p1 cells treated over several weeks, Fig. S5A): no or only insignificant antiviral effects | antiviral effect on late HBV life cycle steps [1]: no or only insignificant antiviral effects

C=C1[C@H](CO)[C@@H](O)C[C@@H]1n1cnc2c(=O)[nH]c(N)nc21 [Entecavir]
Emax ([1]; Hepatitis B virus): 96.7%

O=C(O)P(=O)(O)O [Foscarnet]
Emax ([1]; Hepatitis B virus): 94.2%
